Laboratory results taken from US20110319392A1, “Thiazole Sulfonamide And Oxazole Sulfonamide Kinase Inhibitors” (priority 2009, published 2011).
Where a name gives a salt, the structure may show the parent alone. Marks after values point to notes of the source that are not given here.

Columns and labels:
Colo205 = assay: In vivo tumor growth, Colo205 subcutaneous tumors; parameters: species or system athymic mice; key: −: no response; +: growth delay (1-2×doubling); ++: growth delay (>2×doubling); +++: stable disease; ++++: partial regression; +++++: complete regression; conditions: oral, 14-day period
Protocol: (§1) A375P F11s and Colo205 cells were cultured in RPMI 1640 medium supplemented with 10% fetal bovine serum and 1% sodium pyruvate or 10% fetal bovine serum and without sodium pyruvate, respectively. Tumor cells (1.75×10^6 A375P F11 s or 5×10^6 Colo205) were implanted subcutaneously into the right flank of athymic mice on Day 1. To facilitate their growth, A375P F11s cells were suspended in Matrigel diluted 1:1 in phosphate-buffered saline before implantation. When tumors had reached approximately 200 mm^3 in volume (Day 19-22), tumor-bearing mice were randomized into study groups (n=7 or 8). Animals were dosed orally once or twice daily for a 14-day period. The compound of Example 19b was dosed in a 0.5% HPMC/0.2% Tween 80 pH 7-8 vehicle. Tumor growth was measured twice a week using calipers for the duration of the study. Tumor volumes were calculated as a product of (length×width×width)/2 and median values were used to compare groups. Complete regressions (CR) were defined as three consecutive tumor measurements of ≦13.5 mm^3. Partial regressions were defined as three consecutive measurements of ≦50% of starting tumor volume. Tumor growth delay was defined as the difference in time taken for treated and control groups to reach 1000 mm^3 (T-C1000).

A375P F11s = assay: In vivo tumor growth, A375P F11s subcutaneous tumors; parameters: species or system athymic mice; key: −: no response; +: growth delay (1-2×doubling); ++: growth delay (>2×doubling); +++: stable disease; ++++: partial regression; +++++: complete regression; conditions: oral, 14-day period
Protocol: as §1

COc1cc(N2CCN(CCS(C)(=O)=O)CC2)c(C)cc1Nc1nccc(-c2sc(C(C)C)nc2-c2cccc(NS(=O)(=O)c3c(F)cccc3F)c2)n1 [Example 19b, 2,6-Difluoro-N-(3-(2-(1-methylethyl)-5-(24(5-methyl-2-(methyloxy)-4-(4-[2-(methylsulfonyl)ethyl]-1-piperazinyl}phenyl)amino]-4-pyrimidinyl}-1,3-thiazol-4-yl)phenyl]benzenesulfonamide dihydrochloride]
Response (Colo205; 30 mg/kg bid): ++ | Response (Colo205; 30 mg/kg qd): − | Response (Colo205; 100 mg/kg bid): ++++ | Response (Colo205; 300 mg/kg qd): ++++ | Response (A375P F11s; 1 mg/kg bid): − | Response (A375P F11s; 3 mg/kg bid): + | Response (A375P F11s; 10 mg/kg bid): ++ | Response (A375P F11s; 30 mg/kg bid): ++++ | Response (A375P F11s; 30 mg/kg qd, during dosing): +++ (during dosing)*
